Experimental data taken from patent publication US5162361A, “Method of treating diseases associated with elevated levels of interleukin 1” (priority 1990, dated 1992).

Assays:
[1] = test system: IL-1; assay: IL-1 release from alveolar macrophages (thymocyte co-stimulation bioassay); assay type: cell-based, rat; details: for Effect on IL-1: LPS, 24 h, FIG. 7
Procedure: Pulmonary alveolar macrophages were collected by lavaging the lungs as previously described (D. B. Warheit et al., Am. Rev. Resp. Dis. 134, 128 (1986)). Once washed and resuspended, the macrophages were allowed to adhere to plastic plates in serum free RPMI 1640 containing 25 mM Hepes, 2 mM L-glutamine, 50 μg/ml gentamicin and streptomycin (media). Following adherence for 1 hour at 37° C. in 5% CO2, the plates were washed once with warm media to remove nonadherent cells, cells were resuspended in media with 10% FCS and treated with or without pentamidine at the indicated concentration and LPS (5 ng/ml) for 24 hours). IL-1 activity was assayed using a thymocyte co-stimulation assay (S. B. Mizel in Methods in Macrophage Biology, Editors, Herscowitz and Holden (1981)). Single cell thymocyte suspension from B6C3F1 mice (female, 5-9 weeks old) at a concentration of 2.0×10^7 /ml in media containing 10% FCS, and 2.5×10^-5 M 2-β mercaptoethanol were added in 50 μl aliquots to each well of flat bottom microtiter plates along with 50 μl of PHA at 2.5 μg/ml. Serial dilution of supernatants or cells were made in media with 10% FCS and added in 100 μl aliquots. IL-1 activity was measured by quantifying the uptake of 3Hthymidine during the last 6 hours of a 72 hour culture at 37° C. and 5% CO2. Cells were harvested onto glass fiber filters and filter associated radioactivity counted in a scintillation counter.
(§1) In vitro studies were performed by taking alveolar macrophages from normal healthy rat lungs and culturing them in the presence of an imidazoline with the inducer lipopolysaccharide for 24 hours. The standard bioassay for IL-1 was performed (see above).

[2] = test system: tumor necrosis factor; assay: Tumor necrosis factor secretion by rat macrophages; assay type: cell-based
Procedure: It has also been observed that pentamidine (10^-5 M) blocks the secretion of tumor necrosis factor in rat macrophages (42 units/ml - pentamidine vs. 82 units/ml - control), as well as tumor necrosis factor and IL-6 in human macrophages, where at a concentration of 10^-5 M pentamidine, tumor necrosis factor and IL-6 secretion are suppressed >50%. These additional cytokines are also very influential mediators in inflammatory diseases.
as §1

[3] = test system: IL-1; assay: Western blot analysis of IL-1 on cellular protein from imidazoline treated cells; assay type: cell-based, rat
Source text: In addition, Western blot analysis of IL-1 on cellular protein derived from imidazoline treated cells was recently performed. This method definitively identifies the presence or absence of the protein using electrophoretic techniques to separate by molecular weight IL-1 from other proteins followed by staining with specific antibody fog IL-1.

[4] = In vitro toxicity to the cell (LD50); assay type: cell-based; details: rat macrophages
[5] = test system: rat macrophages; assay: In vitro toxicity to the cell (LD50); assay type: cell-based; details: imidazoline, summary statement; compared with pentamidine
[6] = test system: IL-1α mRNA; assay: Northern blot analysis of IL-1α mRNA expression; assay type: cell-based, rat; details: 1 μM dexamethasone, LPS, 3 h, FIG. 2
Procedure: Specific transcription of IL-1α mRNA synthesis was assessed by incubating cells with and without 10 μM pentamidine or 1 μM of the corticosteroid, dexamethasone in the presence or absence of lipopolysaccharide (LPS). At the end of a 3 hour incubation period, the cells were lysed and the total cellular RNA was collected, blotted onto a nitrocellulose filter and probed with ^32 P-labeled IL-1α cDNA. […] In contrast, mRNA for IL-1α was not seen in dexamethasone treated cells.
For determination of IL-1 mRNA levels, cells (4×10^6) were cultured with or without pentamidine (10 μM) or dexamethasone (1 μM) in media with 10% FCS in the presence or absence of LPS (1 μg/ml) for 3 hours. Total cellular RNA was isolated by quanidinium-thiocyanate phenolchloroform extraction (P. Chomczynski et al., Anal. Bioch. 162, 156 (1987)). RNA (10 μg) was electrophoresed in 1.2% agarose gels as previously described (H. Leharch et al., Biochemistry 4743 (1977)). […] Hybridizing species were detected by autoradiography at -70° C., using Kodak XAR film with an intensifying screen. The total RNA levels per lane on the gel was assessed by monitoring 28S and 18S, and expression of α-tubulin mRNA. Accumulation of α-tubulin mRNA was determined by probing the same blot with ^32 P labeled 30 mer oligonucleotide (Du Pont).

[7] = test system: IL-1α; assay: Western blot analysis of cell associated IL-1α; assay type: cell-based, rat; details: 1 μM dexamethasone, LPS, 24 h, FIG. 3
Procedure: To determine the effect of pentamidine on cellular stores of IL-1, intracellular levels of IL-1 were quantitated by incubating cells with and without 10 μM pentamidine and LPS for 24 hours. At the end of this incubation period, the cells were washed, lysed and the total cellular protein was collected for Western blot analysis. […] This is in agreement with the generally accepted existence of a precursor form of IL-1 with a molecular weight in the range of 31-33 kD (J. Giri et al., J. Immunol. 134, 343 (1985)).
Cells (4×10^6 cells) were oultured with pentamidine (10μM) or dexamethasone (1μM) in media with 10% fetal calf serum (FCS) in the presence or absence of LPS (1 μg/ml) for 24 hours. The cells were washed twice in HBSS and then scraped in homogenizing buffer (HBSS containing 0.1 mM EGTA, 1 mM pmsf, 10 μg/ml leupeptin, 1 KIU/ml aprotinin, pH 7.4). The cell suspension was left on ice for 10 minutes at which time the swollen cells were disrupted by sonication. The nuclei and undisrupted cells were pelleted by centrifugation at 800 rpm for 10 minutes and were discarded. The supernatant was centrifugated at 39,000 rpm for 1 hour at 4° C. After centrifugation, the supernatants containing cytosolic components of the cell was carefully removed and was used as the cytosol fraction. […] Molecular weight references were determined by running one lane with pre-stained molecular weight standards.

[8] = test system: Ia antigen; assay: Ia antigen expression on alveolar macrophages (flow cytometry); assay type: cell-based, rat
Procedure: ^a Ia antigen expression - Alveolar macrophages were diluted to 1×10^6 cells/ml in RPMI (supplemented as above). Three mls. (3×10^6 cells) were added to sterile teflon vials and treated with pentamidine or dexamethasone for 4 hours at 37° C., 5% CO2, followed by the addition of rat γ IFN at 100 U/ml. Cells were incubated for 18 hours, pelleted, counted and adjusted to 1×10^7 cells/ml in ice cold standard buffer (HBSS, 0.1% Na azide, 1% BSA).
Aliquots of cells (50 μl in quadruplicate) from the various treatment groups were plated to a 96 well round bottom plate (Linbro) and incubated for 45 minutes on ice with 50 μl aliquots of one of the following: monoclonal anti-rat OXS (Sera-lab), monoclonal anti-mouse OX6 (Sera-lab), both at 0.5 μg/5×10^5 cells, or HBSS (control). Cells were washed 3× with standard buffer and incubated for 45 minutes on ice, in the dark, with 50 μl of phycoerythrin-labeled goat anti-mouse IGGI (Fisher Biotech) at 1 μg/5×10^5 cells. Cells were washed 3× with standard buffer, resuspended in 0.4 ml of standard buffer and analyzed via flow cytometry.

[9] = test system: Pulmonary alveolar macrophages; assay: Phagocytosis by pulmonary alveolar macrophages (Fluoresbrite beads, flow cytometry); assay type: cell-based, rat
Procedure: One ml aliquots were added to sterile teflon vials (Nalgene) along with pentamidine or dexamethasone (Sigma) as indicated, and incubated for 4 hours at 37° C., 5% CO2. Fluoresbrite carboxylate beads, 1.73 μm (Polysciences) were used to achieve a 100:1 bead to cell ratio and the suspension was incubated for 45 minutes at 37° C., 5% CO2 with gentle agitation. Cell suspensions were then layered over 3 mls. of RPMI/FCS+0.3% BSA, and cells pelleted at 150 xg for 10 minutes. Supernates were discarded and cells resuspended in 1 ml of RPMI/FCS for analysis via flow cytometry. The data presented above is the mean of the percentage of cells taking up one or more beads of triplicate cultures.

Structure (SMILES) | Effect on IL-1 ([1]; imidazoline 10^-6 M, 10^-5 M and 10^-4 M) | Effect on IL-1 ([1]; imidazoline 10^-8 M) | Block of IL-1 in rat macrophages ([1]; imidazoline, summary statement) | Tumor Necrosis Factor ([2]; 10^-5 M Imidazoline, LPS, 24 h (control 83 ± 11)) | Block of tumor necrosis factor in rat macrophages ([2]; imidazoline, summary statement) | Block of IL-1 secretion (Western blot) [3] | CC50 [4] | Toxicity to the cell [5] | IL-1α mRNA expression [6] | Cell associated IL-1α (Western blot) [7] | Ia Antigen Expression (MFI) ([8]; Dexamethasone 10^-6 M (control 459), p < 0.025 vs. control) | Mean concentration of Ia molecules on Ia positive cells ([8]; result in words) | Phagocytic Index ([9]; Dexamethasone 10^-6 M (control 32), p < 0.025 vs. control) | Phagocytic capacity of alveolar macrophages ([9]; result in words)
c1cc(C2=NCCN2)ccc1OCCCCCOc1ccc(C2=NCCN2)cc1 [Imidazoline, 1,5-di(4-imidazolinophenoxy)pentane] | blocked IL-1 in a dose related manner | No effect | ability to block IL-1 | 46 ± 19 units/ml | ability to block IL-1 and tumor necrosis factor | blocks the secretion of IL-1 in a similar manner to pentamidine | > 100 µM | less toxic to the cell | – | – | – | – | – | –
C[C@@H]1C[C@H]2[C@@H]3CCC4=CC(=O)C=C[C@]4(C)[C@@]3(F)[C@@H](O)C[C@]2(C)[C@@]1(O)C(=O)CO [Dexamethasone] | – | – | – | – | – | – | – | – | not seen | did not express the precursor from of IL-1α | 253 MFI | clearly demonstrated its broad immunosuppressive action on these two macrophage functions | 25% | clearly demonstrated its broad immunosuppressive action on these two macrophage functions
